Test results as given in US8877716B2, “Peptide derivatives, preparation and uses thereof” (Vect-Horus, priority 2010, dated 2014).

How the values were obtained:
in vitro = settings: blood
[1] = Demeule et al., 2008; cited from earlier work

Compound | half-life (in vitro) | Kin (cerebral transfer coefficient) [1]
CSCC[C@@H]1NC(=O)[C@H](N)CSSC[C@@H](C(=O)O)NC(=O)CNC(=O)[C@H](CCCNC(=N)N)NC(=O)[C@H](CC(C)C)NC(=O)[C@H](CCCNC(=N)N)NC(=O)[C@@H]2CCCN2C1=O [SEQ ID NO: 17] | 3 h | –
transferrin [Tf] | – | 0.0003 mL/s/g
